Results published in article PMC7312375, “A Novel, Pan-PDE Inhibitor Exerts Anti-Fibrotic Effects in Human Lung Fibroblasts via Inhibition of TGF-β Signaling and Activation of cAMP/PKA Signaling” (International Journal of Molecular Sciences, 2020).

Assays:
Format in all cases: cell-based, human
[1] = system: MRC-5 cells; experiment: TGF-β1-induced collagen gel contraction assay; details: 10 µM, 1 h pre-incubation, 6 h TGF-β1; compared to TGF-β1 alone
Method: A collagen cell contraction assay was performed according to manufactures’ instructions (Cell Biolabs, INC., San Diego, CA, USA). Briefly, MRC-5 was harvested and mixed with a collagen solution. After polymerization, collagen gel lattices were cultured for two days, during which mechanical tension develops. Before releasing the stressed matrix, MRC-5 cells were pre-treated with study compounds (10 µM) for 1 h. Then collagen gels were gently released from the sides of the culture dishes and contraction in the presence of study compounds, and TGF-β1 was initiated. The collagen gel size was monitored at various time points and quantified with the Fiji ImageJ Software (National Institutes of Health, Bethesda, MD, USA, version 1.52q). The experiments were run three times.

[2] = system: TGF-β1-induced MRC-5 cells; experiment: Protein kinase A activity; details: 10 µM 30 min, then TGF-β1 30 min
Method: Protein Kinase A (PKA) activity in MRC-5 cells was determined using a PKA Colorimetric Activity Kit (Invitrogen, Carlsbad, CA, USA) according to the manufacturer’s protocol. MRC-5 cells were seeded in standard culture medium, and after 48 h they were serum-starved for 2 h in HBSS, followed by the addition of study compounds (10 µM) and incubation for 30 min. Finally, TGF-β1 was administered, and the samples were incubated for an additional 30 min. Whole cell lysates were used in the assay. The amount of PKA was normalized to the total protein content in each sample. The experiments were run two times in duplicates.

[3] = system: TGF-β1-induced MRC-5 cells; experiment: Immunofluorescence, nuclear localization of p-CREB; details: 10 µM
Method: For immunocytochemical labeling, MRC-5 cells were seeded on glass coverslips. Study compounds (10 µM) were added 1 h before TGF-β1 treatment, and analysis was performed after 1 h (p-Smad-2 and p-CREB detection) or 48 h (α-SMA detection) of incubation. Cells were fixed in methanol or 4% formaldehyde solution, permeabilized in 0.2% or 0.1% Triton X-100 solution (for p-Smad-2 and p-CREB or α-SMA, respectively). After incubation in blocking solution the following primary antibodies: rabbit polyclonal, anti-phospho-Smad-2 (Ser465, Ser467) antibody (#44-244G, Thermo Fisher Scientific, Waltham, MA, USA); rabbit polyclonal, anti-phospho-CREB1 (Ser133) antibody (#orb213775, Biorbyt, Cambridge, United Kingdom); mouse monoclonal, anti-α-SMA antibody (#MA5-11547, Thermo Fisher Scientific, Waltham, MA, USA) and secondary antibodies: goat anti-rabbit Alexa Fluor 546 conjugated antibody and goat anti-mouse Alexa Fluor 488 conjugated antibody (#A-11010 and #A-11001, respectively, Invitrogen, Carlsbad, CA, USA) were used. Nuclei were counterstained with Hoechst 33342 dye (Thermo Fisher Scientific, Waltham, MA, USA). Slides were mounted in ProLong™ Glass Antifade Mountant (Invitrogen, Carlsbad, CA, USA) and analyzed using Leica DMiL LED Fluo microscope (for α-SMA and p-CREB visualization, 40× objective) or Leica DMi8 with Thunder Imaging System (for p-Smad-2 visualization, 40× objective), all equipped with LAS-X Software (Leica Microsystems GmbH, Wetzlar, Germany). Experiments were run four times using five randomly selected fields of view, at the same fluorescent time exposure and in a blind-folded manner.

[4] = system: TGF-β1-induced MRC-5 cells; experiment: Western blot of p-CREB; details: 10 µM
Method: Western Blot analysis was performed according to a standard protocol. Briefly, MRC-5 cells were pre-incubated with the study compounds (10 µM) for 1 h, followed by 48 h incubation with TGF-β1 and then lysed in RIPA buffer (RIPA Lysis and Extraction Buffer, Thermo Fisher Scientific, Waltham, MA, USA) and supplemented with protease inhibitor cocktail and phosphatase inhibitor cocktail (both from Sigma Aldrich, St. Louis, MO, USA). Equal amounts of protein (30 µg) were separated using 10% SDS-polyacrylamide gels and transferred onto polyvinylidene difluoride (PVDF) membranes (Thermo Fisher Scientific, Waltham, MA, USA). […] ROD was measured according to the NIH guidelines with Fiji ImageJ Software. […]

[5] = system: MRC-5 cells; experiment: cAMP ELISA; details: 10 µM, 30 min
Method: MRC-5 cells were seeded in standard culture medium for 24 h and then serum-starved for 2 h in HBSS. The study compounds (10 µM) were added to the MRC-5 cultures and after 30 min of incubation, the intracellular cAMP level in cell lysates was measured using a colorimetric cAMP ELISA Kit according to the manufacturer’s protocol (Cell Biolabs, INC., San Diego, CA, USA). Obtained results were normalized to total protein content in each sample. The experiments were run two times in duplicates.

Compound: C=C[C@@]1(C)CC(=O)[C@]2(O)[C@@]3(C)[C@@H](O)CCC(C)(C)[C@@H]3[C@H](O)[C@H](OC(C)=O)[C@@]2(C)O1 [forskolin, reference compound]
- size of collagen gel lattices (TGF-β1-induced contraction) [1]: showed similar properties as 145 or IBMX
- Protein kinase A activity in TGF-β1-induced fibroblasts [2]: the highest
- elevation of fraction of MRC-5 cells with nuclear p-CREB localization [3]: 76%
- CREB phosphorylation (immunoblot) [4]: increased CREB phosphorylation
- increase in cAMP level compared to control [5]: 5.7 fold
